Experimental data taken from patent US20250109143A1, “KLF2 INDUCING DEUTERATED COMPOUNDS AND USES THEREOF” (Riparian Pharmaceuticals, Inc., priority 2023, published 2025).

Key:
[1] = system: primary human endothelial cells expressing luciferase under the control of the KLF2 promoter; test: KLF2 induction cell based bioassay (GLuc KLF2 concentration response, luciferase reporter); conditions: 24 hours incubation, 11-point concentration response; for IC50: 24 h, read-out: GLuc KLF2 Conc Response (IC50) Avg; for EC50: EC50 = concentration where normalized curve passes 0.5, read-out: GLuc KLF2 Conc Response (EC50) Ave
Text: In endothelial cell culture media, a stock of the highest working concentration was made at no more than 1% DMSO vehicle. The working stock was then serially diluted 1:2 to make an 11-point concentration response curve. Included in the 96-well plate were 2 reference compounds with known potencies. A DMSO column was included in the 96-well plate at the highest percent vehicle of the working stocks. The 96-well cell culture plate of primary human endothelial cells expressing luciferase under the control of the KLF2 promoter was dosed with 200 μL per well of the dilution series as well as the DMSO control column. The assay plate was incubated at 37° C. for 24 hours. The supernatant was collected at 24 hours.
20 μL of the supernatant was then placed in a 384-well plate with optical duplicates. The corners of the plate received 20 μL of the Gaussia Luciferase Enzyme positive control, as well as 20 μL of the 50 μM Coelenterizine substrate. The plate read is then calibrated using the control, and read using a Molecular Devices SpectraMax iD5, providing luminescence in relative light units (RLU). The plate reader injected 20 μL of the 50 μM Coelenterazine substrate immediately before taking the RLU measurement for each well.
The sample signals were then normalized to the average signal of the DMSO column, as well as to the maximum signal of one of the reference compounds, as shown in the equations below: […]
The EC50 of each compound is then defined as when the concentration response curve passes 0.5.

[2] = system: KLF2; test: qPCR KLF2 concentration response; type: cell-based; conditions: read-out: qPCR KLF2 Conc Response (EC50)

IC50 [1] [nM]	EC50 [2] [nM]	Structure (SMILES)	EC50 [1] [nM]
200	10	COc1ccccc1CNC(=O)C1(C)COc2c(oc3ccccc23)C(=O)N1CC1(F)CCC1 (centres unmarked) [Example 2]	20
340	10	COc1ccccc1CNC(=O)C1(C)COc2c(oc3ccccc23)C(=O)N1CC(C)(C)OC (centres unmarked) [Example 3]	60
150		C#CCCN1C(=O)c2oc3ccccc3c2OCC1(C)C(=O)NCc1ccccc1OC (centres unmarked) [Example 5]	40
70	10	C#CCCN1C(=O)c2oc3ccccc3c2OC[C@]1(C)C(=O)NCc1ccccc1OC [Example 6]	20
